Results taken from ChEMBL document CHEMBL1145142, “Synthesis and activity of 8-substituted benzo[c]quinolizin-3-ones as dual inhibitors of human 5alpha-reductases 1 and 2” (Bioorg Med Chem Lett, 2005).

How the values were obtained:
Assay type in all cases: cell-based
[1] = molecular target: T1, 3-oxo-5-alpha-steroid 4-dehydrogenase 2 (Homo sapiens, UniProt P31213); experiment: Inhibitory concentration against human steroid 5-alpha-reductase 2 receptor expressed in CHO 1829 cells
T1 sequence (P31213 whole entry): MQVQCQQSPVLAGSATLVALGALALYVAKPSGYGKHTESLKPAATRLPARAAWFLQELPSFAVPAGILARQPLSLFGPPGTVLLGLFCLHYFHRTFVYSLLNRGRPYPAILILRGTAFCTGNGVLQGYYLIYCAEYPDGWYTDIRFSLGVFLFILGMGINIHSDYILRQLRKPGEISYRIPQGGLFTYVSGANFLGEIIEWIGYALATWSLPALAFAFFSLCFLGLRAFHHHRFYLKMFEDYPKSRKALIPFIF

[2] = molecular target: T2, 3-oxo-5-alpha-steroid 4-dehydrogenase 1 (Homo sapiens, UniProt P18405); experiment: Inhibitory concentration against human steroid 5-alpha-reductase I receptor expressed in CHO 1827 cells
T2 sequence (P18405 whole entry): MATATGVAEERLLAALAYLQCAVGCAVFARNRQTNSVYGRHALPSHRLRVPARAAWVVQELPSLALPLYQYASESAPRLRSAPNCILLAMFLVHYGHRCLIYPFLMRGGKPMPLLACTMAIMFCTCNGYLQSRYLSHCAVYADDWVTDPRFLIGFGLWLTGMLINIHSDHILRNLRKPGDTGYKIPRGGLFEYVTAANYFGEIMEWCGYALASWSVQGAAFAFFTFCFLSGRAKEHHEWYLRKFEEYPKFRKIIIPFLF

[3] = molecular target: T1, 3-oxo-5-alpha-steroid 4-dehydrogenase 2; experiment: Inhibitory concentration against human steroid 5-alpha-reductase 2 receptor expressed in CHO 1829 cells; la= low activity
[4] = molecular target: T2, 3-oxo-5-alpha-steroid 4-dehydrogenase 1; experiment: Inhibitory concentration against human steroid 5-alpha-reductase I receptor expressed in CHO 1827 cells; la= low activity

| IC50 [1] | IC50 [2] | IC50 [3] | IC50 [4] | Compound |
| --- | --- | --- | --- | --- |
| 3300 nM | 209 nM |  |  | CCOc1ccc(OC(=O)c2ccc3c(c2)CCC2=C(C)C(=O)CCN23)cc1 |
| 134 nM | 160 nM |  |  | CC1=C2CCc3cc(C(=O)Oc4cccc(F)c4)ccc3N2CCC1=O |
|  | 225 nM | Low activity |  | CC1=C2CCc3cc(C(=O)Oc4ccc(C(=O)NC(C)(C)C)cc4)ccc3N2CCC1=O |
| 1000 nM | 271 nM |  |  | CC1=C2CCc3cc(C(=O)Oc4cccc(C(F)(F)F)c4)ccc3N2CCC1=O |
| 166 nM | 138 nM |  |  | CC1=C2CCc3cc(C(=O)Oc4ccccc4F)ccc3N2CCC1=O |
| 308 nM | 361 nM |  |  | CC1=C2CCc3cc(C(=O)Oc4ccc(C(N)=O)cc4)ccc3N2CCC1=O |
|  |  | Low activity | Low activity | CC1=C2CCc3cc(C(=O)N(C(C)C)C(C)C)ccc3N2CCC1=O |
| 368 nM | 42 nM |  |  | CC1=C2CCc3cc(C(=O)Oc4ccccc4C(F)(F)F)ccc3N2CCC1=O |
| 1200 nM | 149 nM |  |  | CC1=C2CCc3cc(C(=O)Oc4ccc(C(F)(F)F)cc4)ccc3N2CCC1=O |
| 467 nM |  |  |  | COC(=O)c1cccc(OC(=O)c2ccc3c(c2)CCC2=C(C)C(=O)CCN23)c1 |
| 4800 nM |  |  |  | CCOC(=O)c1ccc2c(c1)CCC1=C(C)C(=O)CCN12 |
| 665 nM | 268 nM |  |  | CCCNC(=O)c1ccc(OC(=O)c2ccc3c(c2)CCC2=C(C)C(=O)CCN23)cc1 |
|  |  | Low activity |  | CC1=C2CCc3cc(C(=O)Oc4ccc(C(C)(C)C)cc4)ccc3N2CCC1=O |
|  | 1400 nM | Low activity |  | CC1=C2CCc3cc(C(=O)Oc4ccc(Cl)cc4)ccc3N2CCC1=O |
| 584 nM | 129 nM |  |  | COC(=O)c1ccc(OC(=O)c2ccc3c(c2)CCC2=C(C)C(=O)CCN23)cc1 |
| 801 nM | 272 nM |  |  | CC1=C2CCc3cc(C(=O)Oc4ccc(N)cc4)ccc3N2CCC1=O |
| 2100 nM |  |  |  | COC(=O)c1ccc2c(c1)CCC1=C(C)C(=O)CCN12 |
| 372 nM | 463 nM |  |  | CCN(CC)C(=O)c1ccc(OC(=O)c2ccc3c(c2)CCC2=C(C)C(=O)CCN23)cc1 |
|  | 1000 nM | Low activity |  | CC1=C2CCc3cc(C(=O)Nc4ccc(C)cc4)ccc3N2CCC1=O |
|  |  | Low activity |  | CC1=C2CCc3cc(C(=O)OC(C)(C)C)ccc3N2CCC1=O |
| 119 nM | 93 nM |  |  | CC1=C2CCc3cc(C(=O)Oc4ccc(F)cc4)ccc3N2CCC1=O |
| 553 nM | 102 nM |  |  | CC1=C2CCc3cc(C(=O)Oc4ccc(C)cc4)ccc3N2CCC1=O |
| 295 nM |  |  |  | CC1=C2CCc3cc(C(=O)Oc4ccccc4)ccc3N2CCC1=O |
|  | 6990 nM | Low activity |  | CC1=C2CCc3cc(C(=O)OCCCO)ccc3N2CCC1=O |
| 9500 nM |  |  |  | CC1=C2CCc3cc(C(=O)OCc4ccccc4)ccc3N2CCC1=O |
| 255 nM | 707 nM |  |  | CC(=O)Nc1ccc(OC(=O)c2ccc3c(c2)CCC2=C(C)C(=O)CCN23)cc1 |
| < 50 nM |  |  |  | CC1=C2CCc3cc(C(=O)OC(C)C)ccc3N2CCC1=O |
|  |  | Low activity | Low activity | CC1=C2CCc3cc(C(=O)NC(C)(C)C)ccc3N2CCC1=O |
| 1200 nM | 116 nM |  |  | COc1ccc(OC(=O)c2ccc3c(c2)CCC2=C(C)C(=O)CCN23)cc1 |

| Compound | IC50 [1] | IC50 [2] | IC50 [3] | IC50 [4] |
| --- | --- | --- | --- | --- |
| CCN(CC)C(=O)c1ccc2c(c1)CCC1=C(C)C(=O)CCN12 |  |  | Low activity | Low activity |
